Results: patent US8987328B2, “Esters of capsaicinoids as dietary supplements” (Trinity Laboratories, Inc., priority 2008, dated 2015)
Read-outs that look alike come from different tables or passages of the source.

Tests used:
[1] = parameters: species or system human; conditions: in vivo
[2] = parameters: species or system human; conditions: in vivo; remark: listed apart in the source
[3] = in vivo, po
[4] = cited from earlier work
[5] = i.v. administration, rats; cited from earlier work
[6] = cited from earlier work; remark: listed apart in the source
[7] = p<0.05, cited from earlier work
[8] = 30% lard diet, capsaicin 0.14% of diet
[9] = cholesterol-free diet, 4 mg per animal daily, relative to controls
[10] = diet with 0.2% cholesterol, 4 mg per animal daily

Q: Which body weight [1] does the source give for “Palmitoyl Ester of Capsaicin USP [palmitoyl-capsaicin USP]” here?
A: maintained an average weight

Q: And the “body weight fluctuation over and under average” value [1]?
A: 2-3 pounds

Q: What about the LDL cholesterol [2] of the same compound?
A: ~110 mg/dL

Q: What about the cholesterol level [2] of the same compound?
A: normal level

Q: What about the “burning or irritation in the stomach” value [3] of the same compound?
A: No individual complained of burning or irritation in the stomach

Q: For `COc1cc(CNC(=O)CCCCCCC(C)C)ccc1O` [dihydrocapsaicin], which HDL-cholesterol ([4]; in vivo) is on record?
A: increased significantly

Q: What about the VLDL cholesterol ([4]; in vivo) of the same compound?
A: decreased significantly

Q: And the VLDL-cholesterol ([4]; in vivo)?
A: reduced

Q: What about the serum triglyceride concentrations ([4]; in vivo) of the same compound?
A: Neither drug had an effect

Q: What about the triglycerides ([4]; in vivo) of the same compound?
A: decreased significantly

Q: Which “time to distribution to brain, spinal cord, liver and blood” value [5] does the source give for `COc1cc(CNC(=O)CCCCC=CC(C)C)ccc1O` [capsaicin, 8-methyl-N-vanillyl-6-nonenamide] here?
A: ≤ 20 min

Q: What about the serum triglyceride levels ([6]; 30% lard diet, capsaicin 0.14% of diet, vs high-fat diet without capsaicin) of the same compound?
A: significantly lower

Q: And the levels of cholesterol [6, 8]?
A: not affected

Q: What about the “levels of free fatty acids” value [6, 8] of the same compound?
A: not affected

Q: What about the levels of pre-beta-lipoprotein [6, 8] of the same compound?
A: not affected

Q: And the “weight of perirenal adipose tissue” value ([6]; high-fat diet rats)?
A: reduced in a dose-dependent manner

Q: And the HDL-cholesterol [4, 9]?
A: increased significantly

Q: And the LDL-cholesterol [4, 9]?
A: increased significantly

Q: What about the VLDL cholesterol [4, 9] of the same compound?
A: decreased significantly

Q: What about the total cholesterol [4, 9] of the same compound?
A: increased significantly

Q: And the serum triglyceride concentrations ([4]; cholesterol-free diet, 4 mg per animal daily)?
A: Neither drug had an effect

Q: What about the HDL-cholesterol [4, 10] of the same compound?
A: increased

Q: What about the VLDL-cholesterol [4, 10] of the same compound?
A: reduced

Q: And the plasma insulin levels ([7]; OGTT in dogs)?
A: elevation

Q: And the blood glucose levels ([7]; at 2.5 h in OGTT, n=6, control 6.40+/−0.13)?
A: 4.91 mM
